# According to PMC7561186, “Rational design of balanced dual-targeting antibiotics with limited resistance” (PLoS Biology, 2020):
# Read-outs that look alike come from different tables or passages of the source.
# Test system: S. aureus clinical isolates
# Assay: microbe, parasite or virus in culture
# Assay type: cell-based
smiles,measurement,setting,value
CC(=O)NC[C@H]1CN(c2ccc(N3CCOCC3)c(F)c2)C(=O)O1 [Linezolid],MIC,"S. aureus ATCC 29213, MSSA / VSSA, test date 2018-10-25 (three repeat lines)",4 µg/mL
same,MIC,"Staphylococcus aureus, ATCC 29213 / MSSA, S. aureus ATCC 29213, MSSA / VSSA, test date 2018-10-25 (three repeat lines), read-out: MIC",2 µg/mL
same,MIC,"Staphylococcus aureus, ATCC 29213 / MSSA, S. aureus ATCC 29213, MSSA / VSSA, test date 2018-11-07, read-out: MIC",2 µg/mL
same,MIC,"Staphylococcus aureus, MRSA / NRS 3 / VISA, S. aureus IHMA 1308243, NRS3, MRSA / VISA, read-out: MIC",1 µg/mL
same,MIC,"Staphylococcus aureus, MRSA / NRS 4 / VISA, S. aureus IHMA 649380, NRS4, MRSA / VISA, read-out: MIC",1 µg/mL
same,MIC,"Staphylococcus aureus, MRSA / NRS 18 / VISA, S. aureus IHMA 649386, NRS18, MRSA / VISA, read-out: MIC",2 µg/mL
same,MIC,"Staphylococcus aureus, MRSA / NRS 19 / VISA, S. aureus IHMA 649387, NRS19, MRSA / VISA, read-out: MIC",0.5 µg/mL
same,MIC,"Staphylococcus aureus, MRSA / NRS 21 / VISA, S. aureus IHMA 649388, NRS21, MRSA / VISA, read-out: MIC",1 µg/mL
same,MIC,"Staphylococcus aureus, MRSA / NRS 22 / USA600 / VISA, S. aureus IHMA 649389, NRS22, MRSA / VISA, USA600, read-out: MIC",1 µg/mL
same,MIC,"Staphylococcus aureus, MRSA / NRS 23 / VISA, S. aureus IHMA 649390, NRS23, MRSA / VISA, read-out: MIC",2 µg/mL
same,MIC,"Staphylococcus aureus, MRSA / NRS 24 / VISA, S. aureus IHMA 649391, NRS24, MRSA / VISA, read-out: MIC",1 µg/mL
same,MIC,"Staphylococcus aureus, MRSA / NRS 26, S. aureus IHMA 649392, NRS26, MRSA / VSSA, read-out: MIC",1 µg/mL
same,MIC,"Staphylococcus aureus, MRSA / NRS 27 / VISA, S. aureus IHMA 1308248, NRS27, MRSA / VISA, read-out: MIC",2 µg/mL
same,MIC,"Staphylococcus aureus, MRSA / NRS 29 / VISA, S. aureus IHMA 1308250, NRS29, MRSA / VISA, read-out: MIC",1 µg/mL
same,MIC,"Staphylococcus aureus, MRSA / NRS 37 / VISA, S. aureus IHMA 1308251, NRS37, MRSA / VISA, read-out: MIC",1 µg/mL
same,MIC,"Staphylococcus aureus, MRSA / NRS 54, S. aureus IHMA 1308253, NRS54, MRSA / VSSA* (*Expected VAN intermediate, confirmed VAN susceptible twice), test date 2018-11-07, read-out: MIC",1 µg/mL
same,MIC,"Staphylococcus aureus, MRSA / NRS 56 / VISA, S. aureus IHMA 1308254, NRS56, MRSA / VISA, read-out: MIC",1 µg/mL
same,MIC,"Staphylococcus aureus, MRSA / USA100 / VRSA, S. aureus IHMA 672230, VRS1, MRSA / VRSA, USA100, read-out: MIC",1 µg/mL
same,MIC,"Staphylococcus aureus, MRSA / USA100 / VRSA, S. aureus IHMA 672231, VRS2, MRSA / VRSA, USA100, read-out: MIC",1 µg/mL
same,MIC,"Staphylococcus aureus, MRSA / USA100 / VRSA, S. aureus IHMA 672234, VRS4, MRSA / VRSA, USA100, read-out: MIC",2 µg/mL
same,MIC,"Staphylococcus aureus, MRSA / USA100 / VRSA, S. aureus IHMA 672235, VRS5, MRSA / VRSA, USA100, read-out: MIC",2 µg/mL
same,MIC,"Staphylococcus aureus, MRSA / USA100 / VRSA, S. aureus IHMA 672237, VRS7, MRSA / VRSA, USA100, read-out: MIC",2 µg/mL
same,MIC,"Staphylococcus aureus, MRSA / USA100 / VRSA, S. aureus IHMA 672238, VRS8, MRSA / VRSA, USA100, read-out: MIC",1 µg/mL
same,MIC,"Staphylococcus aureus, MRSA / USA100 / VRSA, S. aureus IHMA 672239, VRS9, MRSA / VRSA, USA100, read-out: MIC",1 µg/mL
same,MIC,"Staphylococcus aureus, MRSA / USA100 / VRSA, S. aureus IHMA 1308256, VRS10, MRSA / VRSA, USA100, read-out: MIC",4 µg/mL
same,MIC,"Staphylococcus aureus, MRSA / USA100 / VRSA, S. aureus IHMA 1308258, VRS11b, MRSA / VRSA, USA100, read-out: MIC",1 µg/mL
same,MIC,"Staphylococcus aureus, MRSA / USA800 / VRSA, S. aureus IHMA 672233, VRS3b, MRSA / VRSA, USA800, read-out: MIC",1 µg/mL
same,MIC,"Staphylococcus aureus, MRSA, S. aureus IHMA 1569509, MRSA / VSSA, read-out: MIC",4 µg/mL
same,MIC,"Staphylococcus aureus, MRSA, S. aureus IHMA 1575268, MRSA / VSSA, read-out: MIC",2 µg/mL
same,MIC,"Staphylococcus aureus, MRSA, S. aureus IHMA 1575629, MRSA / VSSA, read-out: MIC",4 µg/mL
same,MIC,"Staphylococcus aureus, MRSA, S. aureus IHMA 1577820, MRSA / VSSA, read-out: MIC",2 µg/mL
same,MIC,"Staphylococcus aureus, MRSA, S. aureus IHMA 1580300, MRSA / VSSA, read-out: MIC",0.5 µg/mL
same,MIC,"Staphylococcus aureus, MRSA, S. aureus IHMA 1580940, MRSA / VSSA, read-out: MIC",2 µg/mL
same,MIC,"Staphylococcus aureus, MRSA, S. aureus IHMA 1582100, MRSA / VSSA, read-out: MIC",2 µg/mL
same,MIC,"Staphylococcus aureus, MRSA, S. aureus IHMA 1583795, MRSA / VSSA, read-out: MIC",1 µg/mL
same,MIC,"Staphylococcus aureus, MRSA, S. aureus IHMA 1584223, MRSA / VSSA, read-out: MIC",4 µg/mL
same,MIC,"Staphylococcus aureus, MRSA, S. aureus IHMA 1585316, MRSA / VSSA, read-out: MIC",2 µg/mL
same,MIC,"Staphylococcus aureus, MRSA, S. aureus IHMA 1586780, MRSA / VSSA, read-out: MIC",1 µg/mL
same,MIC,"Staphylococcus aureus, MRSA, S. aureus IHMA 1587322, MRSA / VSSA, read-out: MIC",2 µg/mL
same,MIC,"Staphylococcus aureus, MRSA, S. aureus IHMA 1588127, MRSA / VSSA, read-out: MIC",1 µg/mL
same,MIC,"Staphylococcus aureus, MRSA, S. aureus IHMA 1591462, MRSA / VSSA, read-out: MIC",4 µg/mL
same,MIC,"Staphylococcus aureus, MRSA, S. aureus IHMA 1592755, MRSA / VSSA, read-out: MIC",2 µg/mL
same,MIC,"Staphylococcus aureus, MRSA, S. aureus IHMA 1592776, MRSA / VSSA, read-out: MIC",2 µg/mL
same,MIC,"Staphylococcus aureus, MRSA, S. aureus IHMA 1597106, MRSA / VSSA, read-out: MIC",1 µg/mL
same,MIC,"Staphylococcus aureus, MRSA, S. aureus IHMA 1602095, MRSA / VSSA, read-out: MIC",4 µg/mL
same,MIC,"Staphylococcus aureus, MRSA, S. aureus IHMA 1611170, MRSA / VSSA, read-out: MIC",2 µg/mL
same,MIC,"Staphylococcus aureus, MRSA, S. aureus IHMA 1611612, MRSA / VSSA, read-out: MIC",4 µg/mL
same,MIC,"Staphylococcus aureus, MRSA, S. aureus IHMA 1612228, MRSA / VSSA, read-out: MIC",2 µg/mL
same,MIC,"Staphylococcus aureus, MRSA, S. aureus IHMA 1620441, MRSA / VSSA, read-out: MIC",1 µg/mL
